From ChEMBL document CHEMBL4024712, “Synthesis, stability and mechanistic studies of potent anticryptococcal hexapeptides” (Eur J Med Chem, 2017)
≈ marks a conversion by molar mass, not a printed value. Calls of active or inactive are those of the source. The rule behind the calls is not given here. Non-standard residues stand in square brackets, D forms with d. Residues, ends and D or L forms follow the SMILES beside them. His(τ-Bzl) = N[C@@H](Cc1cn(Cc2ccccc2)cn1)C(=O)O; 1Nal = N[C@@H](Cc1cccc2ccccc12)C(=O)O; Bta = N[C@@H](Cc1csc2ccccc12)C(=O)O; Cha = N[C@@H](CC1CCCCC1)C(=O)O; Orn = NCCC[C@H](N)C(=O)O

Experiments:
Cryptococcus neoformans [1] = experiment: Antifungal activity against Cryptococcus neoformans ATCC 90113 after 68 to 72 hrs by Alamar blue assay; assay type: functional
Staphylococcus aureus [2] = experiment: Anti-bacterial activity against Staphylococcus aureus ATCC 29213 by CLSI method; assay type: functional; conditions: Staphylococcus aureus, ATCC 29213
[3] = test system: Mycobacterium intracellulare; experiment: Anti-bacterial activity against Mycobacterium intracellulare ATCC 23068 after 68 to 72 hrs by Alamar blue assay; assay type: functional, cell-based
Pseudomonas aeruginosa = experiment: Anti-bacterial activity against Pseudomonas aeruginosa ATCC 27853 by CLSI method; assay type: functional
Vero = experiment: Cytotoxicity against African green monkey Vero cells up to 10 ug/ml after 48 hrs by neutral red dye based assay; assay type: cell-based; conditions: chlorocebus sabaeus
Staphylococcus aureus [4] = experiment: Bactericidal activity against Staphylococcus aureus ATCC 29213 by CLSI method; assay type: functional
Staphylococcus aureus [5] = experiment: Bactericidal activity against methicillin-resistant Staphylococcus aureus ATCC 33591 by CLSI method; assay type: functional
Nakaseomyces glabratus [6] = experiment: Antifungal activity against Candida glabrata ATCC 90030 after 18 to 24 hrs by Alamar blue assay; assay type: functional
Candida albicans [7] = experiment: Fungicidal activity against Candida albicans ATCC 90028 after 18 to 24 hrs by Alamar blue assay; assay type: functional
Staphylococcus aureus [8] = experiment: Anti-bacterial activity against methicillin-resistant Staphylococcus aureus ATCC 33591 by CLSI method; assay type: functional; conditions: Staphylococcus aureus, ATCC 33591
Aspergillus fumigatus [9] = experiment: Fungicidal activity against Aspergillus fumigatus ATCC 90906 after 68 to 72 hrs by Alamar blue assay; assay type: functional
Pichia kudriavzevii [10] = experiment: Antifungal activity against Candida krusei ATCC 6258 after 18 to 24 hrs by Alamar blue assay; assay type: functional; conditions: Pichia kudriavzevii, ATCC 6258
Candida albicans [11] = experiment: Antifungal activity against Candida albicans ATCC 90028 after 18 to 24 hrs by Alamar blue assay; assay type: functional
Nakaseomyces glabratus [12] = experiment: Fungicidal activity against Candida glabrata ATCC 90030 after 18 to 24 hrs by Alamar blue assay; assay type: functional
Aspergillus fumigatus [13] = experiment: Antifungal activity against Aspergillus fumigatus ATCC 90906 after 68 to 72 hrs by Alamar blue assay; assay type: functional
Pichia kudriavzevii [14] = experiment: Fungicidal activity against Candida krusei ATCC 6258 after 18 to 24 hrs by Alamar blue assay; assay type: functional
Escherichia coli [15] = experiment: Bactericidal activity against Escherichia coli ATCC 35218 by CLSI method; assay type: functional
Escherichia coli [16] = experiment: Anti-bacterial activity against Escherichia coli ATCC 35218 by CLSI method; assay type: functional
Lipid bilayer [17] = experiment: Binding affinity to EYPC/cholesterol small unilamellar vesicles at 0.1 uM by tryptophan fluorescence quenching assay; assay type: ADME
Cryptococcus neoformans [18] = experiment: Fungicidal activity against Cryptococcus neoformans ATCC 90113 after 68 to 72 hrs by Alamar blue assay; assay type: functional
Lipid bilayer [19] = experiment: Binding affinity to EYPC/EYPG small unilamellar vesicles at 0.1 uM by tryptophan fluorescence quenching assay
[20] = Selectivity index ratio of cytotoxic concentration against African green monkey Vero cells to IC50 for Cryptococcus neoformans ATCC 90113; assay type: toxicity; conditions: read-out: Selectivity Index
[21] = test system: Mycobacterium intracellulare; experiment: Bactericidal activity against Mycobacterium intracellulare ATCC 23068 after 68 to 72 hrs by Alamar blue assay; assay type: functional
[22] = Nakaseomyces glabratus, ATCC 90030
[23] = Aspergillus fumigatus, ATCC 90906

Structure (SMILES) | MIC (Cryptococcus neoformans [1]) | MIC (Staphylococcus aureus [2]) | IC50 [3] | IC50 (Pseudomonas aeruginosa) | Activity (Vero) | MBC (Staphylococcus aureus [4]) | MBC (Staphylococcus aureus [5]) | MIC (Nakaseomyces glabratus [6]; [22]) | MFC (Candida albicans [7]) | MIC (Staphylococcus aureus [8]) | MFC (Aspergillus fumigatus [9]) | MIC (Pichia kudriavzevii [10]) | MIC (Candida albicans [11]; Candida albicans, ATCC 90028) | MFC (Nakaseomyces glabratus [12]) | MIC (Aspergillus fumigatus [13]; [23]) | MFC (Pichia kudriavzevii [14]) | MBC (Escherichia coli [15]) | IC50 (Nakaseomyces glabratus [6]) | IC50 (Aspergillus fumigatus [13]) | IC50 (Escherichia coli [16]) | further results
NCCC[C@H](N)C(=O)N[C@H](Cc1c[nH]c2ccccc12)C(=O)N[C@@H](CC1CCCCC1)C(=O)N[C@@H](Cc1cccc2ccccc12)C(=O)N[C@H](Cc1ccccc1)C(=O)N[C@@H](Cc1cn(Cc2ccccc2)cn1)C(N)=O (H-[Orn][dW][Cha][1Nal][dF][His(τ-Bzl)]-NH2) | 2.5 µg/mL (≈ 2.4 µM) | 10 µg/mL (≈ 9.59 µM) | Not Active | Not Active | Non-Toxic | 10 µg/mL (≈ 9.59 µM) | 20 µg/mL (≈ 19.2 µM) | 20 µg/mL (≈ 19.2 µM) | 20 µg/mL (≈ 19.2 µM) | 10 µg/mL (≈ 9.59 µM) | 20 µg/mL (≈ 19.2 µM) | 10 µg/mL (≈ 9.59 µM) | 20 µg/mL (≈ 19.2 µM) | 20 µg/mL (≈ 19.2 µM) | – | – | – | – | – | – | –
NCCC[C@H](N)C(=O)N[C@H](Cc1c[nH]c2ccccc12)C(=O)N[C@@H](CC1CCCCC1)C(=O)N[C@@H](CC1CCCCC1)C(=O)N[C@H](Cc1ccccc1)C(=O)N[C@@H](Cc1cn(Cc2ccccc2)cn1)C(N)=O (H-[Orn][dW][Cha][Cha][dF][His(τ-Bzl)]-NH2) | 1.25 µg/mL (≈ 1.25 µM) | 10 µg/mL (≈ 10 µM) | – | Not Active | Non-Toxic | – | 20 µg/mL (≈ 20 µM) | – | 10 µg/mL (≈ 10 µM) | – | 20 µg/mL (≈ 20 µM) | 10 µg/mL (≈ 10 µM) | 10 µg/mL (≈ 10 µM) | – | 20 µg/mL (≈ 20 µM) | 10 µg/mL (≈ 10 µM) | 20 µg/mL (≈ 20 µM) | Not Active | – | – | MIC (Escherichia coli [16]; Escherichia coli, ATCC 35218): 20 µg/mL (≈ 20 µM); IC50 (Escherichia coli [16]; Escherichia coli, ATCC 35218, read-out: IC50): 10 µg/mL (≈ 10 µM)
CC[C@H](C)[C@H](NC(=O)[C@H](CC1CCCCC1)NC(=O)[C@@H](Cc1c[nH]c2ccccc12)NC(=O)[C@@H](N)CCCN)C(=O)N[C@@H](CC1CCCCC1)C(=O)N[C@@H](Cc1cn(Cc2ccccc2)cn1)C(N)=O (H-[Orn][dW][Cha]I[Cha][His(τ-Bzl)]-NH2) | – | – | Not Active | Not Active | Non-Toxic | – | – | 20 µg/mL (≈ 20.7 µM) | 20 µg/mL (≈ 20.7 µM) | – | – | – | 20 µg/mL (≈ 20.7 µM) | – | – | 20 µg/mL (≈ 20.7 µM) | – | – | Not Active | Not Active | IC50 (Staphylococcus aureus [2]; read-out: IC50): 17.5 µg/mL (≈ 18.1 µM); Activity (Lipid bilayer [17]): Non-Toxic; MFC (Cryptococcus neoformans [18]): 1.25 µg/mL (≈ 1.3 µM); Activity (Lipid bilayer [19]): Active; IC50 (Candida albicans [11]; Candida albicans, ATCC 90028, read-out: IC50): 17.4 µg/mL (≈ 18 µM); selectivity ratio [20]: 21 to 25
NCCC[C@H](N)C(=O)N[C@H](Cc1c[nH]c2ccccc12)C(=O)N[C@@H](CC1CCCCC1)C(=O)N[C@@H](Cc1csc2ccccc12)C(=O)N[C@H](Cc1ccccc1)C(=O)N[C@@H](Cc1cn(Cc2ccccc2)cn1)C(N)=O (H-[Orn][dW][Cha][Bta][dF][His(τ-Bzl)]-NH2) | – | – | Not Active | – | Non-Toxic | 10 µg/mL (≈ 9.54 µM) | 20 µg/mL (≈ 19.1 µM) | 10 µg/mL (≈ 9.54 µM) | – | 10 µg/mL (≈ 9.54 µM) | 10 µg/mL (≈ 9.54 µM) | 10 µg/mL (≈ 9.54 µM) | 10 µg/mL (≈ 9.54 µM) | 10 µg/mL (≈ 9.54 µM) | 10 µg/mL (≈ 9.54 µM) | 10 µg/mL (≈ 9.54 µM) | 20 µg/mL (≈ 19.1 µM) | – | – | – | MFC (Cryptococcus neoformans [18]): 1.25 µg/mL (≈ 1.19 µM); IC50 (Pichia kudriavzevii [10]; read-out: IC50): 6.51 µg/mL (≈ 6.21 µM)
C[C@@H]1[C@H](O)[C@@H](C)/C=C/C=C/C=C/C=C/C=C/C=C/C=C/[C@H](O[C@@H]2O[C@H](C)[C@@H](O)[C@H](N)[C@@H]2O)C[C@@H]2O[C@](O)(C[C@@H](O)C[C@@H](O)[C@H](O)CC[C@@H](O)C[C@@H](O)CC(=O)O[C@H]1C)C[C@H](O)[C@H]2C(=O)O [AMPHOTERICIN B] | – | – | – | – | – | – | – | 0.63 µg/mL (≈ 0.682 µM) | – | – | 5 µg/mL (≈ 5.41 µM) | – | – | – | – | – | – | – | – | – | IC50 (Aspergillus fumigatus [13]; Aspergillus fumigatus, ATCC 90906, read-out: IC50): 1.2 µg/mL (≈ 1.3 µM); IC50 (Nakaseomyces glabratus [6]; Nakaseomyces glabratus, ATCC 90030, read-out: IC50): 0.34 µg/mL (≈ 0.368 µM)
CC(C)C[C@H](NC(=O)[C@H](CC1CCCCC1)NC(=O)[C@@H](Cc1c[nH]c2ccccc12)NC(=O)[C@@H](N)CCCN)C(=O)N[C@H](Cc1ccccc1)C(=O)N[C@@H](Cc1cn(Cc2ccccc2)cn1)C(N)=O (H-[Orn][dW][Cha]L[dF][His(τ-Bzl)]-NH2) | 5 µg/mL (≈ 5.22 µM) | – | – | Not Active | Non-Toxic | 20 µg/mL (≈ 20.9 µM) | – | – | – | – | – | 20 µg/mL (≈ 20.9 µM) | – | – | – | 20 µg/mL (≈ 20.9 µM) | – | Not Active | Not Active | Not Active | MIC ([3]; Mycobacterium intracellulare, ATCC 23068): 20 µg/mL (≈ 20.9 µM); MBC [21]: 20 µg/mL (≈ 20.9 µM); IC50 (Candida albicans [11]): Not Active
